Earlier results, collected in patent publication US20050266079A1, “Process for making aqueous coated beadlets” (SmithKline Beecham Corporation, priority 1999, published 2005).

Conditions: in vivo; cited from earlier work

For CN[C@@H](C)[C@@H](O)c1ccccc1.Cl [Pseudoephedrine HCl, (1S, 2S)-2-Methylamino-1-phenyl-1-propanol hydrochloride], the elimination half life is listed as 5 to 8 h.
